Reference: patent US20080064071A1, “Zwitterionic detergents for the storage and use of DNA polymerases” (priority 2006, published 2008)
Several values for one entry are separate records, joined by “and”; a condition that tells them apart may be missing. Equal values may be shown once.

Tests used:
[1] = tested on: Pfu fusion DNA polymerase; experiment: Endpoint PCR with Pfu fusion DNA polymerase, detergent/surfactant added to detergent-free PCR buffer; format: biochemical, Pyrococcus furiosus; conditions: for PCR amplification with detergent alone (FIG. 2) / PCR product with detergent alone (FIG. 3): 0.05% of the individual detergent; for detergent concentration at which amplifications generated product yields (FIG. 1): individual detergent in fusion PCR buffer, genomic DNA targets, no product in absence of detergent
[2] = target: T1, Pfu DNA polymerase (Pyrococcus furiosus, UniProt P61875); experiment: Endpoint PCR with Pfu DNA polymerase, detergent/surfactant added to detergent-free PCR buffer; format: biochemical; conditions: for product yields on addition of zwitterionic detergent to PCR buffer (FIG. 5): versus buffer lacking detergent, which failed to generate product; for effectiveness relative to CHAPS and Anzergent 3-10 (FIG. 5): CHAPSO 0.05-0.2%, Anzergent 3-12 0.1-0.2%, in PCR buffer
T1 sequence (P61875 1-775): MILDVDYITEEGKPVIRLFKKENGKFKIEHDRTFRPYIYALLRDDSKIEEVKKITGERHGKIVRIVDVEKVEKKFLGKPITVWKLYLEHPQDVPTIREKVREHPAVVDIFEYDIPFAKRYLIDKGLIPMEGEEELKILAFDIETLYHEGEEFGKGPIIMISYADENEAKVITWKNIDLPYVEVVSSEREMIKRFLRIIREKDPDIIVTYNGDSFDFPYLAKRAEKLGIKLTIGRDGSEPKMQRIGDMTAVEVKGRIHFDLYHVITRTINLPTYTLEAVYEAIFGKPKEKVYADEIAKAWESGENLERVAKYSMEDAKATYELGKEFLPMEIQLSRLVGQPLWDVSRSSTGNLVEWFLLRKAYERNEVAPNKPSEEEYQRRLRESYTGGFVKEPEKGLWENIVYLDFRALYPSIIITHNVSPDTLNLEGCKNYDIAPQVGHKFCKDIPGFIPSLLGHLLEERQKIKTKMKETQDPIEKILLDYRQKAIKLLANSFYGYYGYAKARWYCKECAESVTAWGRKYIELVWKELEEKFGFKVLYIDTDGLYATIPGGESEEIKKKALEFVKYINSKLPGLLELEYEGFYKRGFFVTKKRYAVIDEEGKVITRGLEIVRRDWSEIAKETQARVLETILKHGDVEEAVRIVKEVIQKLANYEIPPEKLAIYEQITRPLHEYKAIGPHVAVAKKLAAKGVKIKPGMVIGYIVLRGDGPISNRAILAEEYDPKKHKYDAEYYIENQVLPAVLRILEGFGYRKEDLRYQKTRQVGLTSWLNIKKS
Protocol: Pfu (exo+ and exo−) fusion DNA polymerase (e.g., as described in U.S. patent application Ser. No.: 11/488,535, filed Jul. 17, 2006, and herein incorporated by reference in its entirety), cPfu DNA polymerase (Stratagene catalog #600154), and PEF were purified using standard production protocols (no detergent present), except that non-ionic detergents were omitted from the final storage buffers. Enzymes were stored at −20° C. in 50 mM Tris-HCl (pH 8.2), 0.1 mM EDTA, 1 mM DTT, and 50% glycerol. DNA polymerase storage buffers were additionally supplemented with one or more zwitterionic detergents, in percentages (v/v) ranging from 0.05% to 0.5%.
PCR reaction buffers were prepared without non-ionic detergents (“DF buffer”, detergent-free buffer). For example, 1× cPfu DF-buffer contains 10 mM KCl, 10 mM (NH4)2SO4, 20 mM Tris HCl (pH 8.8), 2 mM MgSO4, and 100 ug/ml BSA. Detergent-free versions of Pfu fusion buffers were also prepared, and consisted of: 40 mM Tris-SO4 (pH 10), 15 mM K2SO4, 8 mM (NH4)2SO4, 2 mM MgSO4 (1× Pfu fusion DF-buffer I) or 30 mM Tris-SO4 (pH 10), 40 mM K2SO4, 1.5 mM (NH4)2SO4, 2 mM MgSO4 (1× Pfu fusion DF-buffer II).
PCR reaction buffers were supplemented with 0.1% Triton X100 (non-ionic detergent) or with one or more zwitterionic detergents or non-detergent surfactants. For example, zwitterionic detergents CHAPS, CHAPSO, 3-10, and 3-12 were obtained from AnaTrace, Inc. (Maumee, Ohio) and added to DF-buffers in percentages (v/v) ranging from 0.05% to 0.5%. The non-detergent surfactant, Surfynol 465, was purchased from Air Products and used in a similar fashion.
For the 0.9 kb and 6 kb systems, PCR reactions (50 ul) were conducted with 40 ng cPfu DNA polymerase in IX cPfu DF-buffer or with 28 ng or 224 ng Pfu fusion DNA polymerase in 1× Pfu fusion DF-buffer I or DF-buffer II, respectively. PCR reactions also contained 2 U/50 ul Pyrococcus furiosus dUTPase (PEF), 100 ng of human genomic DNA, 250 uM each dNTP, and 100 ng of each primer. For the 9 kb system, PCR reactions (50 ul) consisted of 80 ng Pfu, 1.5× cPfu DF-buffer, 2U Pyrococcus furiosus dUTPase (PEF), 200 ng of human genomic DNA, 500 uM each dNTP, and 200 ng of each primer. PCR reaction buffers were supplemented with 0.1% Triton X100 or with zwitterionic detergent(s).

[3] = tested on: Pfu and Pfu fusion DNA polymerase; experiment: Endpoint PCR, enhancing detergents and detergent combinations (Table 2); format: biochemical, Pyrococcus furiosus; conditions: for Effective range, Detergent 1 (single detergent) / Optimal range, Detergent 1 (single detergent): endpoint PCR, detergent alone
[4] = tested on: Pfu fusion DNA polymerase; experiment: SYBR Green QPCR with Pfu fusion DNA polymerase; format: biochemical, Pyrococcus furiosus; conditions: for Effective range, concentration of each detergent in combination, SYBR Green QPCR: combination CHAPS (0.1%) + Anz. 3-10 (0.02-0.15%); for Optimal range, concentration of each detergent in combination, SYBR Green QPCR: combination CHAPS (0.1%) + Anz. 3-10 (0.05-0.15%); for Effective range, Detergent 1 (single detergent), SYBR Green QPCR / Optimal range, Detergent 1 (single detergent), SYBR Green QPCR: detergent alone; for QPCR amplification efficiency, total fluorescence and Ct values versus 0.1% Triton X100 (FIG. 7) / amplification efficiency, total fluorescence and Ct values (FIG. 8): 0.5% detergent; for amplification efficiency, total fluorescence and Ct values (FIG. 8): aldolase and GDH gene targets
Protocol: QPCR reactions contained DNA or cDNA template, varying amounts of primer (see Table 3 below), 300 uM each dNTP, 4 ng/ul exo Pfu fusion, 6 ng/ul hot start IgG, 0.4ng/ul single-stranded DNA-binding protein, 1× Pfu fusion DF-buffer II (pH 9), 4% DMSO, and 8% glycerol. QPCR reactions were supplemented with 0.1% Triton X100 or zwitterionic detergent, and with 0.5× SYBR Green (Molecular Probes S-7567). Reactions were cycled on the MX3000P Real-Time PCR System using the following conditions: (1 cycle) 95° C. 5 min; (40 cycles) 95° C. 10 sec, 60° C. 30 sec.

[5] = tested on: Pfu fusion DNA polymerase; experiment: Accelerated stability study of Pfu fusion DNA polymerase in storage buffer, residual activity by 0.9 kb PCR; format: biochemical, Pyrococcus furiosus; conditions: detergent in storage buffer
Protocol: Accelerated stability studies were performed to illustrate the stabilizing effects of zwitterionic detergents. Pfu fusion DNA polymerase was purified in the absence of detergents and then diluted to 28 ng/ul in storage buffer lacking detergent or storage buffers containing either conventional non-ionic detergent (0.1% Igepal/0.1% Triton X100) or various zwitterionic detergents. Protein samples were stored at −20° C. or were heated at 95° C. for varying lengths of time. Residual activity was assayed by amplifying a 0.9 kb genomic target in PCR in fusion DF-buffer supplemented with either 0.1% Triton X100 or 0.1% CHAPSO/0.1% Anzergent 3-12.

[6] = target: Taq DNA polymerase (Thermus aquaticus, UniProt P19821); conditions: disclosed in U.S. Pat. No. 6,127,155; cited from earlier work
Taq DNA polymerase, sequence (P19821 whole entry): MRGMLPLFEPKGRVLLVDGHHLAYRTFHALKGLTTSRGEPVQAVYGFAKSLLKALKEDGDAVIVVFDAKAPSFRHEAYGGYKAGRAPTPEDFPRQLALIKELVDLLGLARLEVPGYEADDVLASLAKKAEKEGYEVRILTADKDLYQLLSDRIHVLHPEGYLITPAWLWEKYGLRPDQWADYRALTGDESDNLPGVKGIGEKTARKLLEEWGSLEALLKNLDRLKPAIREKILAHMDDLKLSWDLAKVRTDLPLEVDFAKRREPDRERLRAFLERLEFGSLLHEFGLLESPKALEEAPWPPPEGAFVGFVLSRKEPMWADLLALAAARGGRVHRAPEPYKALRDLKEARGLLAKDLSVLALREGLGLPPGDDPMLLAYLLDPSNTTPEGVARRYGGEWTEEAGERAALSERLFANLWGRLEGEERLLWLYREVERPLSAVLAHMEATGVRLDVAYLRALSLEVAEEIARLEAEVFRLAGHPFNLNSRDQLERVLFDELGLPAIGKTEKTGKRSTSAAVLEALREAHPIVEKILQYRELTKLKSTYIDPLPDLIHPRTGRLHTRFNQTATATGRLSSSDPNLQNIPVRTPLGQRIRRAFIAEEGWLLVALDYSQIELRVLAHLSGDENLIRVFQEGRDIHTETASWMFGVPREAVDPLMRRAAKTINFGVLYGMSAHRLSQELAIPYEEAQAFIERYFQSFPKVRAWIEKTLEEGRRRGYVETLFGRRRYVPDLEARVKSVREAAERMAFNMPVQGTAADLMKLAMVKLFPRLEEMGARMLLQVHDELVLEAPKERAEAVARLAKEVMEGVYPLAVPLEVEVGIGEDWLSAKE

[7] = combination CHAPS (0.05, 0.1%) + Anz. 3-10 (0.1-0.5%)
[8] = combination CHAPSO (0.1%) + Anz. 3-10 (0.05-0.4%)
[9] = combination CHAPSO (0.1%) + Anz. 3-10 (0.05-0.5%)
[10] = combination CHAPS (0.05%) + Anz. 3-12 (0.05-0.3%)
[11] = combination CHAPS (0.05%) + Anz. 3-12 (0.05-0.5%)
[12] = combination CHAPS (0.1%) + Anz. 3-12 (0.05-0.5%)
[13] = combination CHAPS (0.05-0.5%) + CHAPSO (0.05-0.3%)

Compound | PCR amplification with detergent alone (FIG. 2) [1] | detergent concentration at which amplifications generated product yields (FIG. 1) [1] | product yields on addition of zwitterionic detergent to PCR buffer (FIG. 5) [2] | Optimal range, concentration of each detergent in combination [3, 8] | Effective range, concentration of each detergent in combination [3, 9] | Effective range, Detergent 1 (single detergent) [3] | Optimal range, Detergent 1 (single detergent) [3] | Effective range, concentration of each detergent in combination, SYBR Green QPCR [4] | Optimal range, concentration of each detergent in combination, SYBR Green QPCR [4] | Effective range, Detergent 1 (single detergent), SYBR Green QPCR [4] | Optimal range, Detergent 1 (single detergent), SYBR Green QPCR [4] | PCR product with detergent alone (FIG. 3) [1] | effectiveness relative to CHAPS and Anzergent 3-10 (FIG. 5) [2] | Optimal range, concentration of each detergent in combination [3, 10] | Effective range, concentration of each detergent in combination [3, 11] | Effective range, concentration of each detergent in combination [3, 12] | Optimal range, concentration of each detergent in combination [3, 12] | effect on stability of Pfu fusion DNA polymerase (FIG. 6) [5] | Effective range, concentration of each detergent in combination [3, 13] | QPCR amplification efficiency, total fluorescence and Ct values versus 0.1% Triton X100 (FIG. 7) [4] | also measured
CCCCCCCCCC[N+](C)(C)CCCS(=O)(=O)[O-] [Anzergent 3-10, n-Decyl-N,N-dimethyl-3-ammonio-1-propanesulfonate] | little amplification | 0.4-0.8% | dramatically improved | Anz. 3-10 (0.05-0.4%) | Anz. 3-10 (0.05-0.5%) | Anz. 3-10 (0.4-0.8%) | Anz. 3-10 (0.4-0.8%) | Anz. 3-10 (0.02-0.15%) | Anz. 3-10 (0.05-0.15%) | Anz. 3-10 (0.1-0.3%) | Anz. 3-10 (0.2%) | – | – | – | – | – | – | – | – | – | detergent concentration with favorable result on PCR amplification (FIG. 2) ([1]; individual detergent added to the reaction): 0.4% and 0.8%; Effective range, concentration of each detergent in combination [3, 7]: Anz. 3-10 (0.1-0.5%); Optimal range, concentration of each detergent in combination [3, 7]: Anz. 3-10 (0.1-0.5%)
CCCCCCCCCCCC[N+](C)(C)CCCS(=O)(=O)[O-] [Anzergent 3-12, n-Dodecyl-N,N-dimethyl-3-ammonio-1-propanesulfonate] | – | 0.1-0.2% | dramatically improved | – | – | Anz. 3-12 (0.1-0.4%) | Anz. 3-12 (0.1-0.2%) | – | – | Anz. 3-12 (0.1-0.2%) | Anz. 3-12 (0.15-0.2%) | did not show observable levels of PCR product | somewhat more effective | Anz. 3-12 (0.05-0.3%) | Anz. 3-12 (0.05-0.5%) | Anz. 3-12 (0.05-0.5%) | Anz. 3-12 (0.05-0.5%) | enhance the stability | – | – | Effective range, concentration of each detergent in combination ([3]; combination CHAPSO (0.05%, 0.1%) + Anz. 3-12 (0.05-0.5%)): Anz. 3-12 (0.05-0.5%)
C[C@H](CCC(=O)NCCC[N+](C)(C)CC(O)CS(=O)(=O)[O-])[C@H]1CC[C@H]2[C@@H]3[C@H](O)C[C@@H]4C[C@H](O)CC[C@]4(C)[C@H]3C[C@H](O)[C@]12C (some centres unmarked) [CHAPSO] | little amplification | 0.15-0.3% | dramatically improved | CHAPSO (0.1%) | CHAPSO (0.1%) | CHAPSO (0.1-0.8%) | CHAPSO (0.15-0.35%) | – | – | CHAPSO (0.1-0.75%) | CHAPSO (0.2-0.5%) | did not show observable levels of PCR product | somewhat more effective | – | – | – | – | enhance the stability | CHAPSO (0.05-0.3%) | comparable | amplification efficiency, total fluorescence and Ct values (FIG. 8) [4]: favorable
C[C@H](CCC(=O)NCCC[N+](C)(C)CCCS(=O)(=O)[O-])[C@H]1CC[C@H]2[C@@H]3[C@H](O)C[C@@H]4C[C@H](O)CC[C@]4(C)[C@H]3C[C@H](O)[C@]12C [CHAPS] | – | – | dramatically improved | – | – | CHAPS (0.2-0.8%) | CHAPS (0.2-0.4%) | CHAPS (0.1%) | CHAPS (0.1%) | CHAPS (0.1-0.5%) | CHAPS (0.5%) | – | – | CHAPS (0.05%) | CHAPS (0.05%) | CHAPS (0.1%) | CHAPS (0.1%) | enhance the stability | CHAPS (0.05-0.5%) | comparable | amplification efficiency, total fluorescence and Ct values (FIG. 8) [4]: favorable
NP-40 | – | – | – | – | – | – | – | – | – | – | – | – | – | – | – | – | – | – | – | – | effect on Taq DNA polymerase [6]: stabilize
